Format in all cases: biochemical
The target in experiment [1] is T1, JAK1 (aa 850-1154, catalytic domain, GST-tag) (Homo sapiens, UniProt P23458).
T1 construct: JAK1 (aa 850-1154) and TYK2 (aa 871-1187) are expressed with an N-terminally fused GST-tag; GST (N); purchased Carna Biosciences, Inc; host or cells: baculovirus expression system
As to the kind of experiment: JAK kinase assay (HTRF, phosphorylation of TK substrate-biotin), JAK1. To be noted: ATP at Km (7 μM), read-out: JAK1 kinase inhibitory activity (EC50 indicator). An outline of the steps:
(§1)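 Catalytic-domain kinases phosphorylated 1 μM biotin-TK substrate at ATP Km (JAK1 7 μM, JAK2 4 μM, JAK3 2 μM, TYK2 13 μM) in Hepes pH 7.0 with DTT and MgCl2, for 20-30 min at RT; JAK1 and TYK2 also had 50 nM SEB. Detection was by HTRF (streptavidin-XL665/Cryptate antibody) overnight, giving EC50.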
A general note: TR-FRET usually uses a lanthanide donor and a delayed reading to cut background.

For experiment [2], the target named is T2, JAK2 (catalytic domain, His-tag) (Homo sapiens, UniProt O60674).
T2 construct: All four purified enzymes contain only the catalytic domain; His (N); purchased Carna Biosciences, Inc; host or cells: baculovirus expression system
As to the kind of experiment: JAK kinase assay (HTRF, phosphorylation of TK substrate-biotin), JAK2. To be noted: ATP at Km (4 μM), read-out: JAK2 kinase inhibitory activity (EC50 indicator). In a few lines: as §1

The target of experiment [3] is T3, JAK3 (catalytic domain, His-tag) (Homo sapiens, UniProt P52333).
T3 construct: All four purified enzymes contain only the catalytic domain; His (N); purchased Carna Biosciences, Inc; host or cells: baculovirus expression system
As to the kind of experiment: JAK kinase assay (HTRF, phosphorylation of TK substrate-biotin), JAK3. As to conditions: ATP at Km (2 μM), read-out: JAK3 kinase inhibitory activity (EC50 indicator). An outline of the steps:
as §1

Experiment [4] addresses T4, TYK2 (aa 871-1187, catalytic domain, GST-tag) (Homo sapiens, UniProt P29597).
T4 construct: JAK1 (aa 850-1154) and TYK2 (aa 871-1187) are expressed with an N-terminally fused GST-tag; GST (N); purchased Carna Biosciences, Inc; host or cells: baculovirus expression system
T4 sequence (P29597 871-1187): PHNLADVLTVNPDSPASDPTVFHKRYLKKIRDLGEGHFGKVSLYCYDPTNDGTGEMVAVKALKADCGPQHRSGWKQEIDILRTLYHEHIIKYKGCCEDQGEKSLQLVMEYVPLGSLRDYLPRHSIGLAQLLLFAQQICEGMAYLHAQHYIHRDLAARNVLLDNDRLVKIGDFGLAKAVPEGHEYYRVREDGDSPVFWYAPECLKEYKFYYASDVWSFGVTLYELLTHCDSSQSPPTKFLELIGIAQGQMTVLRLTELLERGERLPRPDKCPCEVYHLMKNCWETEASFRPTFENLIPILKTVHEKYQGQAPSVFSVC
As to the kind of experiment: JAK kinase assay (HTRF, phosphorylation of TK substrate-biotin), TYK2. As to conditions: ATP at Km (13 μM), read-out: TYK2 kinase inhibitory activity (EC50 indicator). In a few lines: as §1

We go through 18 compounds from patent US9346809B2 (LEO PHARMA A/S, priority 2009, dated 2016).

Where two headings read alike, the source gives them in different places. Bounds are passed on as bounds.

T1 sequence (P23458 850-1154): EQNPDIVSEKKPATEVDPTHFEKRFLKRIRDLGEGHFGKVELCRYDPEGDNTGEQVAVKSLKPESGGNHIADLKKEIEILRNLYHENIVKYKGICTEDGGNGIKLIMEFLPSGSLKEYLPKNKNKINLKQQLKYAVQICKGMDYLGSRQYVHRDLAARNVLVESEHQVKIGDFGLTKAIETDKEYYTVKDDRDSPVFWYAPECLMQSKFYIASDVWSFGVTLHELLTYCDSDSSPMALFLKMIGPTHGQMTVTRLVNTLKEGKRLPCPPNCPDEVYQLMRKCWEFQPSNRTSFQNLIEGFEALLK
T3 sequence (P52333 822-1111 limits assumed): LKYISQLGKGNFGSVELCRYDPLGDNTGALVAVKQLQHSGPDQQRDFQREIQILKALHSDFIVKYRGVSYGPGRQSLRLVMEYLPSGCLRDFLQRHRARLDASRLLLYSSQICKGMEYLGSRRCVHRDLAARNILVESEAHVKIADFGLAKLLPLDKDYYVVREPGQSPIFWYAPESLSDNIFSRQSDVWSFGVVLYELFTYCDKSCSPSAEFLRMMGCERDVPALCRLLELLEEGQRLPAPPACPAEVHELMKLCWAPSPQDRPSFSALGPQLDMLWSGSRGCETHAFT
T2 sequence (O60674 849-1124 limits assumed): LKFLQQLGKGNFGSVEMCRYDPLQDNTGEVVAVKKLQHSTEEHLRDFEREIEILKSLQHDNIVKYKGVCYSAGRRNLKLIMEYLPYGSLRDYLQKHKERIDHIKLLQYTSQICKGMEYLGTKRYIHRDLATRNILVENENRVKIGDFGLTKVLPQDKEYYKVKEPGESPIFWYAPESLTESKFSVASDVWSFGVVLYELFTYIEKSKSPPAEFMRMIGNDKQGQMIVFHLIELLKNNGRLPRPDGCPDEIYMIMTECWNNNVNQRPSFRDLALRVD

Take `N#Cc1cccc(CS(=O)(=O)N2[C@@H]3CC[C@H]2CN(c2ncnc4[nH]ccc24)C3)c1` [Example 77, 3-[3-(7H-Pyrrolo[2,3-d]pyrimidin-4-yl)-3,8-diaza-bicyclo[3.2.1]octane-8-sulfonylmethyl]-benzonitrile]: the EC50 in experiment [1] is under 100 nM; in experiment [2], under 100 nM; in experiment [3], 100 to 500 nM; in experiment [4], over 500 nM.
Consider `O=C(c1nsc2cc(Br)ccc12)N1[C@@H]2CC[C@@H]1CN(c1ncnc3[nH]ccc13)C2` [Example 360, (6-Bromo-benzo[d]isothiazol-3-yl)-[3-(7H-pyrrolo[2,3-d]pyrimidin-4-yl)-3,8-diaza-bicyclo[3.2.1]oct-8-yl]-methanone], for which the half-maximal effective concentration (EC50) in experiment [1] (HTRF assay) is 100 to 500 nM; in experiment [2] (HTRF assay), 100 to 500 nM; in experiment [3] (HTRF assay), 100 to 500 nM; in experiment [4] (HTRF assay), over 500 nM.
Consider `Cc1nccnc1C(=O)N1[C@@H]2CC[C@H]1CN(c1ncnc3[nH]ccc13)C2` [Example 72, (3-Methyl-pyrazin-2-yl)-[3-(7H-pyrrolo[2,3-d]pyrimidin-4-yl)-3,8-diaza-bicyclo[3.2.1]oct-8-yl]-methanone], for which the half-maximal effective concentration (EC50) in experiment [1] is 100 to 500 nM; in experiment [2], under 100 nM; in experiment [3], 100 to 500 nM; in experiment [4], over 500 nM.
`N#CCCNS(=O)(=O)c1ccc(C(=O)N2CCN(c3ncnc4[nH]ccc34)CC23CC3)cc1` [Example 395, N-(2-Cyano-ethyl)-4-[7-(7H-pyrrolo[2,3-d]pyrimidin-4-yl)-4,7-diaza-spiro[2.5]octane-4-carbonyl]-benzenesulfonamide]: the EC50 in experiment [1] (HTRF assay), in experiment [2] (HTRF assay), in experiment [3] (HTRF assay) and in experiment [4] (HTRF assay) was under 100 nM each time.
For the compound `O=C(c1cccc2[nH]ccc12)N1CCN(c2ncnc3[nH]ccc23)CC12CC2` [Example 159, (1H-Indol-4-yl)-[7-(7H-pyrrolo[2,3-d]pyrimidin-4-yl)-4,7-diaza-spiro[2.5]oct-4-yl]-methanone], the EC50 was under 100 nM in experiment [1], under 100 nM in experiment [2], 100 to 500 nM in experiment [3] and 100 to 500 nM in experiment [4].
Take `O=C(OCc1ccccc1)N1[C@@H]2CC[C@H]1CN(c1ncnc3[nH]ccc13)C2` [Example 58, 3-(7H-Pyrrolo[2,3-d]pyrimidin-4-yl)-3,8-diazabicyclo[3.2.1]octane-8-carboxylic acid benzyl ester]: the EC50 was under 100 nM in experiment [1], under 100 nM in experiment [2], 100 to 500 nM in experiment [3] and over 500 nM in experiment [4].
For `N#Cc1ccccc1CC(=O)N1[C@@H]2CC[C@@H]1CN(c1ncnc3[nH]ccc13)C2` [Example 250, 2-{2-Oxo-2-[3-(7H-pyrrolo[2,3-d]pyrimidin-4-yl)-3,8-diaza-bicyclo[3.2.1]oct-8-yl]-ethyl}-benzonitrile], the EC50 is 100 to 500 nM in experiment [1] (HTRF assay), 100 to 500 nM in experiment [2] (HTRF assay), 100 to 500 nM in experiment [3] (HTRF assay) and over 500 nM in experiment [4] (HTRF assay).
Consider `N#Cc1cccc(C(=O)N2CCN(c3ncnc4[nH]ccc34)CC23CC3)c1` [Example 44, 3-[7-(7H-Pyrrolo[2,3-d]pyrimidin-4-yl)-4,7-diazaspiro[2.5]octane-4-carbonyl]benzonitrile], for which the EC50 in experiment [1], in experiment [2], in experiment [3] and in experiment [4] was under 100 nM in each case.
On to `O=C(c1cnccn1)N1CCN(c2ncnc3[nH]cc(Cl)c23)CC12CC2` [Example 314, [7-(5-Chloro-7H-pyrrolo[2,3-d]pyrimidin-4-yl)-4,7-diaza-spiro[2.5]oct-4-yl]-pyrazin-2-yl-methanone], for which the EC50 in experiment [1] (HTRF assay) is over 500 nM; in experiment [2] (HTRF assay), 100 to 500 nM; in experiment [3] (HTRF assay), over 500 nM; in experiment [4] (HTRF assay), over 500 nM.
On to `O=C(CCc1ccccc1)N1CCN(c2ncnc3[nH]ccc23)CC12CC2` [Example 153, 3-Phenyl-1-[7-(7H-pyrrolo[2,3-d]pyrimidin-4-yl)-4,7-diaza-spiro[2.5]oct-4-yl]-propan-1-one], for which the EC50 in experiment [1] was under 100 nM; in experiment [2] it was under 100 nM; in experiment [3], 100 to 500 nM; in experiment [4], over 500 nM.
Turning to `CS(=O)(=O)c1ccc2[nH]c(C(=O)N3C4CCC3CN(c3ncnc5[nH]ccc35)C4)cc2c1` [Example 130, (5-Methanesulfonyl-1H-indol-2-yl)-[3-(7H-pyrrolo[2,3-d]pyrimidin-4-yl)-3,8-diaza-bicyclo[3.2.1]oct-8-yl]-methanone], the half-maximal effective concentration (EC50) is under 100 nM in experiment [1], under 100 nM in experiment [2], under 100 nM in experiment [3] and 100 to 500 nM in experiment [4].
With `CC1CN(C(=O)Cc2cccc(C#N)c2)C2(CC2)CN1c1ncnc2[nH]ccc12` (stereo not drawn) [Example 146, 3-{2-[6-Methyl-7-(7H-pyrrolo[2,3-d]pyrimidin-4-yl)-4,7-diaza-spiro[2.5]oct-4-yl]-2-oxo-ethyl}-benzonitrile], the EC50 in experiment [1] is 100 to 500 nM; in experiment [2], under 100 nM; in experiment [3], 100 to 500 nM; in experiment [4], over 500 nM.
Turning to `O=C(CC(F)(F)F)N1CCN(c2ncnc3[nH]ccc23)CC12CC2` [Example 24, 3,3,3-Trifluoro-1-[7-(7H-pyrrolo[2,3-d]pyrimidin-4-yl)-4,7-diazaspiro[2.5]oct-4-yl]propan-1-one], the EC50 in experiment [1] was under 100 nM; in experiment [2], under 100 nM; in experiment [3] it was under 100 nM; in experiment [4] it was over 500 nM.
On to `N#CC1(C(=O)N2[C@@H]3CC[C@@H]2CN(c2ncnc4[nH]ccc24)C3)CCOCC1` [Example 248, 4-[3-(7H-Pyrrolo[2,3-d]pyrimidin-4-yl)-3,8-diaza-bicyclo[3.2.1]octane-8-carbonyl]-tetrahydro-pyran-4-carbonitrile], for which the EC50 in experiment [1] (HTRF assay) was 100 to 500 nM; in experiment [2] (HTRF assay), under 100 nM; in experiment [3] (HTRF assay), 100 to 500 nM; in experiment [4] (HTRF assay), over 500 nM.
`NS(=O)(=O)c1ccc(C(=O)N2CCN(c3ncnc4[nH]ccc34)CC23CC3)cc1` [Example 369, 4-[7-(7H-Pyrrolo[2,3-d]pyrimidin-4-yl)-4,7-diaza-spiro[2.5]octane-4-carbonyl]-benzenesulfonamide]: the concentration giving a half-maximal response (EC50) in experiment [1] (HTRF assay), in experiment [2] (HTRF assay), in experiment [3] (HTRF assay) and in experiment [4] (HTRF assay) was under 100 nM each time.
With `Cc1c[nH]c2ncnc(N3CCN(C(=O)C4(C#N)CC4)C4(CC4)C3)c12` [Example 329, 1-[7-(5-Methyl-7H-pyrrolo[2,3-d]pyrimidin-4-yl)-4,7-diaza-spiro[2.5]octane-4-carbonyl]-cyclopropanecarbonitrile], the EC50 in experiment [1] (HTRF assay), in experiment [2] (HTRF assay), in experiment [3] (HTRF assay) and in experiment [4] (HTRF assay) was over 500 nM throughout.
Turning to `CC(=O)N1CCCC1C(=O)N1CCN(c2ncnc3[nH]ccc23)CC12CC2` (stereo not drawn) [Example 50, 1-{2-[7-(7H-Pyrrolo[2,3-d]pyrimidin-4-yl)-4,7-diazaspiro[2.5]octane-4-carbonyl]pyrrolidin-1-yl}ethanone], the EC50 in experiment [1], in experiment [2], in experiment [3] and in experiment [4] was over 500 nM each time.
Turning to `O=C(c1cccnc1)N1CCN(c2ncnc3[nH]ccc23)CC12CC2` [Example 42, Pyridin-3-yl-[7-(7H-pyrrolo[2,3-d]pyrimidin-4-yl)-4,7-diazaspiro[2.5]oct-4-yl]methanone], the 50% effective concentration (EC50) in experiment [1] is under 100 nM; in experiment [2], under 100 nM; in experiment [3], 100 to 500 nM; in experiment [4] it was over 500 nM.

The term EC50 denotes the concentration giving half of the maximal effect.
